“And” between values parts separate entries of the source, which are not always exact repeats. Equal entries are not always repeated.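 Cells were grown in 96-well plates and exposed to each compound for 48 hours at five concentrations; endpoints were interpolated linearly between bracketing concentrations, or set to the highest concentration if not reached. GI50 marks 50% less growth. TGI marks complete inhibition of growth.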

Some test systems named below: ACHN renal; HCC-2998 colon; HOP-62 NSCLC; HT29 colon; LOX IMVI melanoma; MDA-MB-435; NCI-H522 lung; OVCAR-4 ovarian; RXF 393 renal; TK-10 renal.
What all share (assay): NCI anticancer screen, dose series, 48 h

For `COc1cccc2c(=O)c3c(sc12)c(N1CCNCC1)nc1ccccc13`, the GI50 with ACHN renal is 1.6 µM; in the test with HCC-2998 colon it was 1.7 µM; with HOP-62 NSCLC, 1.87 µM; with HT29 colon, 1.46 µM; in the test with LOX IMVI melanoma it was 1.56 µM; in the test on MDA-MB-435, 1.76 µM. Moreover, the GI50 with NCI-H522 lung was 1.79 µM; with OVCAR-4 ovarian, 1.8 µM; in the test with RXF 393 renal it was 1.53 µM; in the test with TK-10 renal it was 1.85 µM. The TGI is 2.97 µM in the test on ACHN renal; 3.26 µM with HCC-2998 colon; 4.3 µM with HOP-62 NSCLC; 3.11 µM in the test with HT29 colon; 3.01 µM with LOX IMVI melanoma; 3.23 µM in the test with MDA-MB-435. In addition, the TGI came out at 3.69 µM with NCI-H522 lung, 3.62 µM in the test on OVCAR-4 ovarian, 3.05 µM with RXF 393 renal and 3.44 µM with TK-10 renal.
As for `Cc1ccc2[nH]c(O)c(N=Nc3ccc(S(N)(=O)=O)cc3)c2c1`, the GI50 with ACHN renal is 9.74 µM; in the test with HCC-2998 colon it was 14.8 µM; in the test with HOP-62 NSCLC, 11.5 µM; in the test with HT29 colon, 12.1 µM; with LOX IMVI melanoma, 13.1 µM; with MDA-MB-435 it was 15.5 µM. Moreover, the GI50 with NCI-H522 lung was 8.94 µM; with OVCAR-4 ovarian, 6.62 µM; in the test with RXF 393 renal, 5.27 µM; with TK-10 renal it was 10.1 µM. For the same molecule, the TGI in the test on ACHN renal, with HCC-2998 colon, in the test on HOP-62 NSCLC, with HT29 colon, in the test on LOX IMVI melanoma and with MDA-MB-435 was above 25 µM throughout. Moreover, the TGI with NCI-H522 lung is above 25 µM; with OVCAR-4 ovarian it was above 25 µM; in the test on RXF 393 renal it was 17.5 µM; in the test with TK-10 renal it was above 25 µM.
With `Nc1nc(F)nc2c1ncn2C1OC(CO)C(O)C1O` (stereo not drawn), the GI50 with ACHN renal was 23.2 µM; in the test on HCC-2998 colon, 5.09 µM; in the test on HOP-62 NSCLC, 13.6 µM; in the test on LOX IMVI melanoma, 19.9 µM; with MDA-MB-435, 17.1 µM; in the test on NCI-H522 lung, 18.4 µM. Moreover, the GI50 in the test with RXF 393 renal is 97.6 µM. For the same molecule, the TGI is above 100 µM in the test on ACHN renal; above 100 µM with HCC-2998 colon; above 79.6 µM in the test on HOP-62 NSCLC; above 100 µM in the test with HT29 colon; above 100 µM with LOX IMVI melanoma; above 100 µM with MDA-MB-435. Besides, the TGI in the test with NCI-H522 lung, in the test on OVCAR-4 ovarian, with RXF 393 renal and with TK-10 renal was above 100 µM in each case.
`CC1=C(O)C(=O)C=C2C1=CC=C1[C@@]2(C)CC[C@@]2(C)[C@@H]3C[C@](C)(C(=O)O)CC[C@]3(C)CC[C@]12C`: the TGI in the test on ACHN renal is 0.0459 µM; in the test with HCC-2998 colon, 0.155 µM; in the test with HOP-62 NSCLC it was 0.963 µM; in the test on HT29 colon, 0.145 µM; in the test with LOX IMVI melanoma, 0.0414 µM; in the test on MDA-MB-435 it was 0.157 µM. Besides, the TGI in the test with NCI-H522 lung amounted to 0.0389 µM; in the test on OVCAR-4 ovarian, 0.174 µM; in the test on RXF 393 renal it was 0.024 µM; in the test with TK-10 renal, 0.0804 µM.
Regarding `CCc1nc(C(N)=O)c(Nc2ccc(N3CCC(N4CCN(C)CC4)CC3)c(OC)c2)nc1NC1CCOCC1`, the GI50 in the test with ACHN renal was 2.07 µM and 0.42 µM and 1.48 µM; in the test with HCC-2998 colon, 8.08 µM and 1.4 µM and 8.55 µM; with HOP-62 NSCLC it was 1.26 µM and 0.238 µM and 1.2 µM; with HT29 colon, 0.569 µM and 0.251 µM and 0.467 µM; in the test on LOX IMVI melanoma, 2.12 µM and 0.337 µM and 2.82 µM; in the test on MDA-MB-435 it was 3.23 µM and 0.511 µM and 3.96 µM. The GI50 with NCI-H522 lung was 4.96 µM and 0.763 µM and 6.27 µM; in the test with OVCAR-4 ovarian it was 12.8 µM and > 10 µM and 13.8 µM; in the test with RXF 393 renal, 1.39 µM and 0.358 µM and 1.7 µM; with TK-10 renal it was 1.75 µM and 0.23 µM and 1.35 µM. Also, the TGI was 17.1 µM and > 10 µM and 15.4 µM with ACHN renal; 22.2 µM and > 3.14 µM and 23.5 µM in the test on HCC-2998 colon; 16.3 µM and > 2.98 µM and 17.6 µM with HOP-62 NSCLC; above 43.8 µM with HT29 colon; 17.6 µM and > 2.34 µM and 19.4 µM with LOX IMVI melanoma; 20.7 µM and > 6.91 µM and 20.8 µM in the test on MDA-MB-435. Also, the TGI in the test on NCI-H522 lung was 21.7 µM and > 2.52 µM and 23.9 µM; in the test with OVCAR-4 ovarian, 27.8 µM and > 10 µM and 32.2 µM; in the test on RXF 393 renal it was 4.54 µM and 1.12 µM and 6.27 µM.
With `CC(C)C[C@H](NC(=O)/C=C/Cn1ccc2ccccc2c1=O)B(O)O`, the GI50 in the test with ACHN renal was 3.33 µM; in the test on HCC-2998 colon, 4.38 µM; in the test with HOP-62 NSCLC it was 4.9 µM; with LOX IMVI melanoma, 2.88 µM; in the test on MDA-MB-435, 1.48 µM; in the test on NCI-H522 lung, 2.52 µM. For the same molecule, the GI50 in the test with RXF 393 renal was 2.13 µM; in the test on TK-10 renal, 3.27 µM. Besides, the TGI in the test on ACHN renal is above 100 µM; in the test on HCC-2998 colon it was 14.2 µM; in the test with HOP-62 NSCLC, 25.9 µM; in the test with LOX IMVI melanoma it was 10.7 µM; in the test on MDA-MB-435, 2.96 µM; in the test with NCI-H522 lung, 6.39 µM. The TGI with RXF 393 renal was 5.15 µM; in the test with TK-10 renal it was 10.4 µM.
Consider `Nc1ccc(-c2nc3ccc(Cc4ccc5nc(-c6ccc(N)cc6)[nH]c5c4)cc3[nH]2)cc1`, for which the GI50 was 17.9 µM in the test on ACHN renal; 2.84 µM with HCC-2998 colon; 6.53 µM in the test with HOP-62 NSCLC; 1.89 µM in the test with HT29 colon; 2.28 µM with LOX IMVI melanoma; 1.45 µM with MDA-MB-435. For the same molecule, the GI50 is 1.97 µM in the test with NCI-H522 lung, 15.7 µM in the test on RXF 393 renal and 24.4 µM with TK-10 renal. Moreover, the TGI with ACHN renal turned out to be 37.5 µM; in the test on HCC-2998 colon it was 12.1 µM; in the test with HOP-62 NSCLC, 35 µM; in the test on HT29 colon it was 4.1 µM; in the test on LOX IMVI melanoma, 5.32 µM; in the test with MDA-MB-435, 3.67 µM. Moreover, the TGI in the test with NCI-H522 lung amounted to 4.87 µM; in the test on RXF 393 renal, 42.9 µM; in the test on TK-10 renal, 43.3 µM.
On to `Cc1[nH]c2ccccc2c(=O)c1CC=C(Cl)Cl`, for which the GI50 is 37.3 µM with ACHN renal; above 100 µM with HCC-2998 colon; 24.1 µM in the test with HOP-62 NSCLC; above 100 µM in the test on HT29 colon; above 100 µM with LOX IMVI melanoma; above 100 µM in the test on MDA-MB-435. For the same molecule, the GI50 in the test on NCI-H522 lung was 24.6 µM; in the test on OVCAR-4 ovarian, 18.6 µM; with TK-10 renal, 25.5 µM. In addition, the TGI was above 100 µM with ACHN renal; above 100 µM with HCC-2998 colon; 64.5 µM in the test on HOP-62 NSCLC; above 100 µM in the test on HT29 colon; above 100 µM in the test with LOX IMVI melanoma; above 100 µM in the test with MDA-MB-435. Further, the values for the TGI with NCI-H522 lung, in the test on OVCAR-4 ovarian and in the test with TK-10 renal were above 100 µM, 79.9 µM and 99.3 µM, respectively.

For the origin of these results see PubChem BioAssay (NCI).
